Measurements reported in PubChem BioAssay (NCI).
Several values for one entry are separate records, joined by “and”; a condition that tells them apart may be missing. Identical values can stand only once.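 1) Cells in 96-well plates. 2) Compound, 48 h, 5 concentrations. 3) Linear interpolation between surrounding doses. 4) Unreached endpoint = highest concentration. GI50 is the concentration that inhibits growth by half. TGI marks complete inhibition of growth.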

How the values were obtained:
Experiment in all cases: NCI anticancer screen, dose series, 48 h
[1] = tested on: BT-549 breast
[2] = tested on: HOP-62 NSCLC
[3] = tested on: IGROV1 ovarian
[4] = tested on: KM12 colon
[5] = tested on: MDA-MB-435
[6] = tested on: NCI-H23 lung
[7] = tested on: OVCAR-4 ovarian
[8] = tested on: OVCAR-8 ovarian
[9] = tested on: SK-MEL-5 melanoma
[10] = tested on: UO-31 renal

Row | Compound | GI50 [1] | TGI [1] | TGI [2] | GI50 [3] | TGI [3] | TGI [4] | GI50 [5] | TGI [5] | GI50 [6] | TGI [6] | GI50 [7] | TGI [7] | GI50 [8] | TGI [8] | GI50 [9] | TGI [9] | GI50 [10] | TGI [10] | GI50 [2] | GI50 [4]
1 | C=C1C(=O)O[C@@H]2[C@@H]3O[C@@](C)(CC/C=C(\C)CCC[C@@H]2C)[C@H](O)C[C@@H]13 | 1.84 µM | 4.46 µM | 24 µM | 2.06 µM | 5.78 µM | 24.6 µM | 1.89 µM | 5.47 µM | 3.71 µM | 16.5 µM | 2.63 µM | 11.7 µM | 1.76 µM | 5.85 µM | 1.72 µM | 3.49 µM | 1.4 µM | 2.93 µM |  | 
2 | COc1cc(-c2cc(-c3ccc(N(C)C)cc3)nc(N3CCC(O)CC3)c2C#N)cc(OC)c1OC | 0.688 µM | 6.8 µM | 24.3 µM | 0.555 µM | 38.4 µM | 4 µM | 0.325 µM | 1.27 µM | 1.35 µM | 6.74 µM | 1.21 µM | > 100 µM | 0.485 µM | > 45.7 µM | 0.162 µM | 0.508 µM | 0.349 µM | 3.34 µM | 0.953 µM | 0.579 µM
3 | CCc1cc(C(N)=O)ccc1-n1nc(C(C)C)c2c(-n3cnc(-c4cnn(C)c4)c3)ccnc21 | 6.81 µM | > 100 µM | > 100 µM | 4.15 µM | > 100 µM | 6.28 µM | 0.719 µM | > 100 µM | 1.14 µM | > 100 µM | 6.24 µM | > 100 µM | 3.72 µM | > 100 µM | 3.98 µM | > 100 µM | 3.25 µM | > 100 µM | 7.92 µM | 0.463 µM
4 | CC(C)Oc1cc(OCC(=O)O)cc(C(=O)N(CCC(N)=O)C(=O)Nc2ccc(C(=O)O)cc2OC(C)C)c1 | > 100 µM | > 100 µM | > 100 µM | > 100 µM | > 100 µM | > 100 µM | > 100 µM | > 100 µM | > 100 µM | > 100 µM | > 100 µM | > 100 µM | > 100 µM | > 100 µM | > 100 µM | > 100 µM | > 100 µM | > 100 µM | > 100 µM | > 100 µM
5 | COc1ccc(/C=C2/SC(=Nc3c(C)nn(-c4ccccc4)c3N)NC2=O)cc1 | 4.94 µM | 22.4 µM | 39.9 µM | 5.2 µM | 28.8 µM | 13.6 µM | 1.27 µM | 3.97 µM | 5.69 µM | 59.5 µM | 8.21 µM | > 100 µM | 13.7 µM | 77.9 µM | 3.23 µM | 10.5 µM | 2.83 µM | 19 µM | 4.12 µM | 3.5 µM
6 | CCN1CCC(C(=O)Nc2n[nH]c3nnc(-c4cccc(F)c4F)cc23)CC1 | 12.2 µM | > 25 µM | > 19.3 µM | > 21.4 µM | > 25 µM | > 18.2 µM | 10.5 µM | > 25 µM | 16.5 µM | > 25 µM | 7.04 µM | 22 µM | 9.46 µM | > 25 µM | 1.62 µM | 7.46 µM | > 25 µM | > 25 µM | 7.62 µM | 6.1 µM
7 | CCCCc1ccc2nc(NC(=O)OC)[nH]c2c1 | 0.0707 µM | 12.4 µM | 26.6 µM | 0.101 µM | > 78.7 µM | 1.3 µM | 0.0148 µM | 0.0379 µM | 0.142 µM | > 100 µM | 1.7 µM | > 69.2 µM | 0.0837 µM | > 52.9 µM | 0.035 µM | 2.57 µM | 12.1 µM | > 100 µM | 0.126 µM | 0.0337 µM
8 | CCc1nc(N)nc(N)c1-c1ccc(Cl)cc1 |  | > 100 µM | > 100 µM | 11.4 µM | > 100 µM | > 100 µM | 4.6 µM | > 100 µM | 7.62 µM | > 100 µM | 60 µM | > 100 µM |  | > 100 µM | 4.14 µM | > 100 µM and 19.8 µM | 14.5 µM | > 100 µM | 26.7 µM | 16.1 µM
